pIC50: −log10 of the molar value.
Target: CDK7 (Homo sapiens (Human), UniProt P50613)
Test: Inhibition of kinase activity, CDK7
Format: biochemical
Settings: co-factors cyclin H and MNAT1
Procedure: Compounds of the invention were assayed for activity against a variety of different kinases. Exemplary results are presented as calculated IC50 values (Table A1 & A2). In Table A1 and A2 “A” represents a calculated IC50 value of less than 100 nM; “B” represents a calculated IC50 value of greater than or equal to 100 nM and less than 1 μM; and “C” represents a calculated IC50 value of 1 μM or greater. The co-factors used for each kinase in the assays were as follows: CDK7: cyclin H and MNAT1; CDK2: cyclin A; CDK9: cyclin K.

Sequence of CDK7 (P50613 whole entry): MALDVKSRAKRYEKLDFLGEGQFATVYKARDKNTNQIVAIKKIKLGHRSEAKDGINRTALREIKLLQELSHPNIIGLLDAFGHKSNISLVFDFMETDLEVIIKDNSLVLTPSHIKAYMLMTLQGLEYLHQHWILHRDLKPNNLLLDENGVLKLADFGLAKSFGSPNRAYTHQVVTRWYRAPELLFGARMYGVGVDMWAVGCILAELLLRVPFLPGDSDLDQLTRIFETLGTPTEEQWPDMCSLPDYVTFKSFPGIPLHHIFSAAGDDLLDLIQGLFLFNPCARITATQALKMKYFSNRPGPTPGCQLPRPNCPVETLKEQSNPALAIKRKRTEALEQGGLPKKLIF
Sequence of CDK7 (P51946 whole entry partner): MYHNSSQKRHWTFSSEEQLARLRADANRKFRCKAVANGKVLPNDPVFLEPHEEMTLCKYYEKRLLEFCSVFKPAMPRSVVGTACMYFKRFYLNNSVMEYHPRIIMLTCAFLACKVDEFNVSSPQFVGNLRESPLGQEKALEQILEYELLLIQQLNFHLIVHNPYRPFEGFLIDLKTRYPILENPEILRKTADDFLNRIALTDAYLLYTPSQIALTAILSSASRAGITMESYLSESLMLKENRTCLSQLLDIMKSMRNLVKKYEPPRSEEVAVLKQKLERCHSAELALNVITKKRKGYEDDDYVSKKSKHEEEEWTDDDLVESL
Sequence of CDK7 (P51948 whole entry partner): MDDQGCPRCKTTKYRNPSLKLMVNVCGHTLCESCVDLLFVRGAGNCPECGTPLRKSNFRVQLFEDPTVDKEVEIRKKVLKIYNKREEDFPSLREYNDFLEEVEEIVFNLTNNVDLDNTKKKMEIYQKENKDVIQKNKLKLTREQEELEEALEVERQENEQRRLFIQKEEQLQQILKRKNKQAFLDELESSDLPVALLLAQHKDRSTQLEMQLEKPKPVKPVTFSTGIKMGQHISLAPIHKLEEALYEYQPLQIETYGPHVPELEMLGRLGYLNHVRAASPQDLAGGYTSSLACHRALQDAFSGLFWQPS

SMILES	pIC50
C=CC(=O)Nc1cccc(C(=O)Nc2n[nH]c3c2CN(C(=O)N[C@H](CN(C)C)c2ccccc2)C3(C)C)c1 [Compound 120, (S)-3-(3-acrylamidobenzamido)-N-(2-(dimethylamino)-1-phenylethyl)-6,6-dimethyl-4,6-dihydropyrrolo[3,4-c]pyrazole-5(1H)-carboxamide]	> 7.00
C=CC(=O)Nc1ccc(C(=O)Nc2n[nH]c3c2CN(C(=O)N[C@H](CN(C)C)c2ccccc2)[C@H]3C(C)C)cc1 [Compound 235, (S)-3-(4-acrylamidobenzamido)-N-((S)-2-(dimethylamino)-1-phenylethyl)-6-isopropyl-4,6-dihydropyrrolo[3,4-c]pyrazole-5(1H)-carboxamide]	≤ 6.00
C=CC(=O)Nc1ccc(C(=O)Nc2n[nH]c3c2CN(C(=O)N[C@H](CN(C)C)c2ccccc2)C32CC2)cc1 [Compound 233, (S)-3′-(4-acrylamidobenzamido)-N-(2-(dimethylamino)-1-phenylethyl)-1′,4′-dihydro-5′H-spiro[cyclopropane-1,6′-pyrrolo[3,4-c]pyrazole]-5′-carboxamide]	> 7.00
C=CC(=O)Nc1ccc(C(=O)Nc2n[nH]c3c2CN(C(=O)N[C@H](CN(C)C)c2ccccc2)[C@@H]3C(C)C)cc1 [Compound 234, (R)-3-(4-acrylamidobenzamido)-N-((S)-2-(dimethylamino)-1-phenylethyl)-6-isopropyl-4,6-dihydropyrrolo[3,4-c]pyrazole-5(1H)-carboxamide]	> 7.00
C=CC(=O)N1CCC[C@@H](C(=O)Nc2n[nH]c3c2CN(C(=O)N[C@H](CN(C)C)c2ccccc2)C3(C)C)C1 [Compound 113, 3-((R)-1-acryloylpiperidine-3-carboxamido)-N-((S)-2-(dimethylamino)-1-phenylethyl)-6,6-dimethyl-4,6-dihydropyrrolo[3,4-c]pyrazole-5(1H)-carboxamide]	> 7.00
C=CC(=O)Nc1ccc(C(=O)Nc2n[nH]c3c2CN(C(=O)N[C@H](CN(C)C)c2ccccc2)C32CCCCC2)cc1 [Compound 236, (S)-3′-(4-acrylamidobenzamido)-N-(2-(dimethylamino)-1-phenylethyl)-1′,4′-dihydro-5′H-spiro(cyclohexane-1,6′-pyrrolo[3,4-c]pyrazole]-5′-carboxamide]	6.00 to 7.00
C=CC(=O)Nc1cccc(Nc2n[nH]c3c2CN(C(=O)N[C@H](CN(C)C)c2ccccc2)C3(C)C)c1 [Compound 110, (S)-3-((3-acrylamidophenyl)amino)-N-(2-(dimethylamino)-1-phenylethyl)-6,6-dimethyl-4,6-dihydropyrrolo[3,4-c]pyrazole-5(1H)-carboxamide]	> 7.00
C=CC(=O)Nc1ccc(C(=O)Nc2c3c(nn2C)C(C)(C)N(C(=O)N[C@H](CN(C)C)c2ccccc2)C3)c(OC)c1 [Compound 244, (S)-3-(4-acrylamido-2-methoxybenzamido)-N-(2-(dimethylamino)-1-phenylethyl)-2,6,6-trimethyl-2,6-dihydropyrrolo[3,4-c]pyrazole-5(4H)-carboxamide]	≤ 6.00
C=CC(=O)Nc1ccc(C(=O)Nc2nn(C)c3c2CN(C(=O)N[C@H](CN(C)C)c2ccccc2)C3(C)C)c(OC)c1 [Compound 243, (S)-3-(4-acrylamido-2-methoxybenzamido)-N-(2-(dimethylamino)-1-phenylethyl)-1,6,6-trimethyl-4,6-dihydropyrrolo[3,4-c]pyrazole-5(1H)-carboxamide]	≤ 6.00
C=CC(=O)Nc1ccc(C(=O)Nc2nn(C)c3c2CN(C(=O)O[C@H](CN(C)C)c2ccccc2)C3(C)C)cc1 [Compound 246, (S)-2-(dimethylamino)-1-phenylethyl 3-(4-acrylamidobenzamido)-1,6,6-trimethyl-4,6-dihydropyrrolo[3,4-c]pyrazole-5(1H)-carboxylate]	6.00 to 7.00
C=CC(=O)Nc1ccc(C(=O)N2CCCC(Nc3n[nH]c4c3CN(C(=O)N[C@H](CN(C)C)c3ccccc3)C4(C)C)C2)cc1 (stereo partly drawn) [Compound 115, 3-((1-(4-acrylamidobenzoyl)piperidin-3-yl)amino)-N-((S)-2-(dimethylamino)-1-phenylethyl)-6,6-dimethyl-4,6-dihydropyrrolo[3,4-c]pyrazole-5(1H)-carboxamide]	> 7.00
C=CC(=O)N[C@H]1CC[C@H](C(=O)Nc2n[nH]c3c2CN(C(=O)N[C@H](CN(C)C)c2ccccc2)C3(C)C)CC1 [Compound 222, 3-((1r,4S)-4-acrylamidocyclohexane-1-carboxamido)-N-((S)-2-(dimethylamino)-1-phenylethyl)-6,6-dimethyl-4,6-dihydropyrrolo[3,4-c]pyrazole-5(1H)-carboxamide]	> 7.00
C=CC(=O)Nc1ccc(C(=O)Nc2n[nH]c3c2CN(C(=O)N[C@H](CN(C)C)c2ccccc2)[C@@H]3c2ccccc2)cc1 [Compound 237, (R)-3-(4-acrylamidobenzamido)-N-((S)-2-(dimethylamino)-1-phenylethyl)-6-phenyl-4,6-dihydropyrrolo[3,4-c]pyrazole-5(1H)-carboxamide]	≤ 6.00
C=CC(=O)Nc1ccc(C(=O)Nc2n[nH]c3c2CN(C(=O)N[C@H](CN(C)C)c2ccccc2)C3(C)C)cc1OC [Compound 217, (S)-3-(4-acrylamido-3-methoxybenzamido)-N-(2-(dimethylamino)-1-phenylethyl)-6,6-dimethyl-4,6-dihydropyrrolo[3,4-c]pyrazole-5(1H)-carboxamide]	> 7.00
C=CC(=O)Nc1ccc(C(=O)N2CCC(Nc3n[nH]c4c3CN(C(=O)N[C@H](CN(C)C)c3ccccc3)C4(C)C)CC2)cc1 [Compound 116, (S)-3-((1-(4-acrylamidobenzoyl)piperidin-4-yl)amino)-N-(2-(dimethylamino)-1-phenylethyl)-6,6-dimethyl-4,6-dihydropyrrolo[3,4-c]pyrazole-5(1H)-carboxamide]	> 7.00
C=CC(=O)Nc1ccc(Nc2n[nH]c3c2CN(C(=O)N[C@H](CN(C)C)c2ccccc2)C3(C)C)cc1 [Compound 111, (S)-3-((4-acrylamidophenyl)amino)-N-(2-(dimethylamino)-1-phenylethyl)-6,6-dimethyl-4,6-dihydropyrrolo[3,4-c]pyrazole-5(1H)-carboxamide]	6.00 to 7.00
C=CC(=O)Nc1ccc(C(=O)N[C@H]2CCC[C@@H](Nc3n[nH]c4c3CN(C(=O)N[C@H](CN(C)C)c3ccccc3)C4(C)C)C2)cc1 [Compound 117, 3-(((1R,3S)-3-(4-acrylamidobenzamido)cyclohexyl)amino)-N-((S)-2-(dimethylamino)-1-phenylethyl)-6,6-dimethyl-4,6-dihydropyrrolo[3,4-c]pyrazole-5(1H)-carboxamide]	> 7.00
CCC(=O)Nc1ccc(C(=O)Nc2n[nH]c3c2CN(C(=O)N[C@H](CN(C)C)c2ccccc2)C3(C)C)cc1 [Compound 215, (S)-N-(2-(dimethylamino)-1-phenylethyl)-6,6-dimethyl-3-(4-propionamidobenzamido)-4,6-dihydropyrrolo[3,4-c]pyrazole-5(1H)-carboxamide]	> 7.00
C=CC(=O)Nc1ccc(C(=O)Nc2n[nH]c3c2CN(C(=O)N[C@H](CN(C)C)c2ccccc2)[C@H]3c2ccccc2)cc1 [Compound 239, (S)-3-(4-acrylamidobenzamido)-N-((S)-2-(dimethylamino)-1-phenylethyl)-6-phenyl-4,6-dihydropyrrolo[3,4-c]pyrazole-5(1H)-carboxamide]	≤ 6.00
C=CC(=O)Nc1ccc(C(=O)Nc2n[nH]c3c2CN(C(=O)N[C@H](CN(C)C)c2ccccc2)C3(C)C)c(OC)c1 [Compound 216, (S)-3-(4-acrylamido-2-methoxybenzamido)-N-(2-(dimethylamino)-1-phenylethyl)-6,6-dimethyl-4,6-dihydropyrrolo[3,4-c]pyrazole-5(1H)-carboxamide]	> 7.00
C=CC(=O)N1CCC(C(=O)Nc2n[nH]c3c2CN(C(=O)N[C@H](CN(C)C)c2ccccc2)C3(C)C)CC1 [Compound 123, (S)-3-(1-acryloylpiperidine-4-carboxamido)-N-(2-(dimethylamino)-1-phenylethyl)-6,6-dimethyl-4,6-dihydropyrrolo[3,4-c]pyrazole-5(1H)-carboxamide]	> 7.00
C=CC(=O)Nc1cccc(C(=O)Nc2cccc(Nc3n[nH]c4c3CN(C(=O)N[C@H](CN(C)C)c3ccccc3)C4(C)C)c2)c1 [Compound 105, (S)-3-((3-(3-acrylamidobenzamido)phenyl)amino)-N-(2-(dimethylamino)-1-phenylethyl)-6,6-dimethyl-4,6-dihydropyrrolo[3,4-c]pyrazole-5(1H)-carboxamide]	> 7.00
C=CC(=O)N1CCC[C@H](C(=O)Nc2n[nH]c3c2CN(C(=O)N[C@H](CN(C)C)c2ccccc2)C3(C)C)C1 [Compound 114, 3-((S)-1-acryloylpiperidine-3-carboxamido)-N-((S)-2-(dimethylamino)-1-phenylethyl)-6,6-dimethyl-4,6-dihydropyrrolo[3,4-c]pyrazole-5(1H)-carboxamide]	> 7.00
C=CC(=O)Nc1cccc(C(=O)Nc2nn(C)c3c2CN(C(=O)N[C@H](CN(C)C)c2ccccc2)C3(C)C)c1 [Compound 241, (S)-3-(3-acrylamidobenzamido)-N-(2-(dimethylamino)-1-phenylethyl)-1,6,6-trimethyl-4,6-dihydropyrrolo[3,4-c]pyrazole-5(1H)-carboxamide]	> 7.00
C=CC(=O)Nc1ccc(C(=O)N[C@@H]2CCC[C@@H](Nc3n[nH]c4c3CN(C(=O)N[C@H](CN(C)C)c3ccccc3)C4(C)C)C2)cc1 [Compound 118, 3-(((1R,3R)-3-(4-acrylamidobenzamido)cyclohexyl)amino)-N-((S)-2-(dimethylamino)-1-phenylethyl)-6,6-dimethyl-4,6-dihydropyrrolo[3,4-c]pyrazole-5(1H)-carboxamide]	> 7.00
